In patent US20250262167A1, “COMPOUNDS, TARGETS AND PATHWAYS FOR MACROPHAGE MODULATION” (Massachusetts Institute of Technology, priority 2020, published 2025):
Where two headings read alike, the source gives them in different places.

What was measured:
[1] = tested on: mouse bone marrow macrophages (BMMs); assay: Development and function of TAM/M2-like macrophages in vitro (qPCR, flow cytometry); type: cell-based
Experimental: DEGs were identified by edgeR at P<0.05 with at least 2 fold-change. Data for genes that were not classified as differentially expressed are plotted in black. […] Mouse BMMs were cultured in normal medium with or without 2.5 μM thiostrepton for 24 hrs (group 1), or cultured in B16F10 tumor cell conditioned medium (CM) with or without 2.5 μM thiostrepton for 24 hrs (group 2), or cultured with B16F10 tumor cell CM for 24 hrs first and then treated with 2.5 μM thiostrepton for another 24 hrs (group 3). The transcript levels of the indicated genes were quantified by qPCR. Data were summarized from two independent experiments. […] Mouse BMMs were treated with thiostrepton for 24 hrs. Untreated and treated macrophages were co-cultured with equal number of B16F10 melanoma cells for 12 hrs. The number of tumor cells were quantified by flow cytometry after subtracting macrophages from total number of cells. Data were summarized from three independent experiments. ** P<0.01 by T-test.
Expression of MHCII, CD80, iNOS, Arg1 and CD206 were quantified by flow cytometry. Shown are representative staining profiles of treated (red) and untreated (dark) TAMs from two independent experiments. […] Alternatively, mouse BMMs were polarized with IL-4/IL-13 (group 3) or lactic acid (group 5) for 24 hrs first and then either not treated or treated with […] thiostrepton for another 24 hrs. The transcript levels of the indicated genes were quantified by qPCR. Data are summarized from two independent experiments.
Mouse BMMs were not treated or treated with […] thiostrepton for 24 hours in normal medium (group 1) or in the presence of IL4/IL13 (group 2), or mouse BMMs were polarized with IL4/IL13 for 24 hours and then either not treated or treated with […] thiostrepton for 24 hours (group 3). RNA was isolated and the transcript levels of the indicated genes were quantified by PCR. Data, shown as mean±s.d., were summarized from two independent experiments. * P<0.05 and ** P<0.01 by T-test. […] Data are shown as mean±s.e.m. FIGS. 19C-19D show flow cytometry analysis of TAM (F4/80^+CD11b^+Ly6C^−Ly6G^−), inflammatory monocytes (F4/80′^intCD11b^+Ly6C^+Ly6G^−) and monocytes (F4/80^−CD11b^+Ly6C^+Ly6G^+) in the tumors of mice treated with DMSO, TA99, cucurbitacin I, and cucurbitacin I plus TA99 18 days after tumor engraftment. Shown are representative F4/80 versus CD11b staining profiles gating on CD45+ cells and MHCII histograms gating on macrophages from c.
Mouse bone marrow-derived macrophages (mBMM) were prepared as described previously^54. Briefly, fresh bone marrow cells were isolated from B6 mice. Cells were plated into 6-well plate with 1×10^6/mL in complete RPMI with 2-mercaptoethanol and cultured for 6 days with fresh medium change every 2 days. mBMMs were differentiated to resemble TAMs in the presence of 10 ng/mL mIL-4 and mIL-13 (Peprotech) or 25 mM lactate acid for 24 hrs or tumor conditioned medium (CM). To prepare CM, 70% confluent B16F10 cultured were replaced with fresh medium and the tumor medium was collected and filtered ([…]) 24 hrs later. The mixture of 3 volumes of tumor medium with 1 volume of complete RPMI for mBMM serves as the CM. Expression of Arg, Fizz1 and Vegfa were quantified by qPCR to assess the development of TAMs. Other genes of Tnf, Il1b, Nos2, Cxcl2, Ccl5, Ym1 and Tgfb serve as macrophage activating markers. To assay the tumor growth inhibition, mBMMs (10,000 cells per well in 96 well plate) were treated with thiostrepton for 24 hrs and then cocultured with equal number of B16 melanoma cells in fresh complete RPMI for 12 hrs. The conditioned medium treated or not treated with thiostrepton were collected and filtered. The numbers of B16 melanoma cells were cultured for 12 hrs with conditioned medium or conditioned medium heated at 95° C. for 5 min. Tumor cells were quantified by flow cytometry to determine the macrophage-dependent killing function. […]

[2] = tested on: mouse BMMs with anti-CD20 labelled human B lymphoma cells (GMB); assay: ADCP of mouse macrophages; type: cell-based; design: dose or concentration left out as unconfirmed; settings: co-culture 2 hrs
Experimental: (§1) Conditioned medium (CM) was collected and filtered. B16F10 melanoma cells were cultured for 12 hrs with CM or CM heat-inactivated at 95° C. for 5 min. The number of tumor cells were quantified by flow cytometry. Data were summarized from two independent experiments. * P<0.05 by T-test. P values are shown based on t-test. […] Mouse BMMs (FIG. 14B) or hMDM (FIG. 14C) were treated with […] thiostrepton for 24 hrs, then co-cultured with equal number of eFluro670 and anti-CD20 labelled human B-cell lymphoma cells for 2 hrs, and analyzed by flow cytometry. Macrophages that have phagocytosed tumor cells are identified as efluro670+ and CD14+. Shown are representative eFluro670 histograms gating on CD14+ macrophages from three different experiments.
(§2) To examine whether thiostrepton-activating macrophages or conditioned medium have effects on tumor cell growth, BMMs were treated with thiostrepton for 24 hrs. Equal numbers of primed BMMs and melanoma cells (B16F10) were co-cultured for 12 hrs. […] Thiostrepton elevated ADCP of both human and mouse macrophages (FIGS. 14B-14C).

[3] = tested on: hMDM with anti-CD20 labelled human B lymphoma cells (GMB); assay: ADCP of human macrophages; type: cell-based; design: dose or concentration left out as unconfirmed; settings: co-culture 2 hrs
Experimental: as §1, §2

[4] = tested on: human primary macrophages
Experimental: (§3) Total protein lysates were isolated from either mouse ImKCs with or without DPI treatment for 6 and 12 hrs or human primary macrophages with or without DPI treatment for 12 hrs at the indicated concentrations. Equal amounts of total proteins from whole-cell lysates were subjected to Western blotting analysis. β-actin was used as a loading control. Shown are representative data of two independent experiments. […] P values were calculated by student t-test. * P<0.05, ** P<0.01. n.s. not significant.
(§4) Proteins were extracted from cells with RIPA buffer. Protein concentration was quantified by BCA Protein Assay Kit (Pierce Biotechnology). Samples containing 20 μg total protein were resolved on a 10% SDS-PAGE gel and electro-transferred onto a PVDF membrane (Millipore Corporation). The membrane was blocked in 5% (w/v) fat-free milk in PBST (PBS containing 0.1% Tween-20). […] The blot was washed twice in PBST and then incubated with anti-Rabbit HRP-conjugated secondary antibody (Cell Signaling Technology, 1:2000) in 5% fat-free milk. The membrane was washed twice in PBST and subjected to protein detection by ECL Plus Western Blotting Detection System (GE Healthcare) before being exposed to a Kodak BioMax XAR film.

ImKCs = settings: dose- and time-dependent
Experimental: as §3, §4

[5] = HFD 16 weeks
Experimental: At week 15 plus 3 days, mice from FIG. 32A were starved overnight (12˜16 hrs) with only water. Glucose (1 mg/kg) was injected intraperitoneally and blood glucose levels were measured at the indicated time. AUC were calculated for statistics (right panel).
Liver samples fixed in 10% buffered formalin were embedded in paraffin, sliced (2 μm sections), and stained with hematoxylin and eosin (H&E). Histological examination for morphological changes was performed in a blinded manner. Liver sections were scored according to the criteria of the NAFLD activity score (NAS).
The GTT were performed in mice 19 weeks after feeding with HFD or NC. For GTT, mice were fasted overnight, followed by an intraperitoneal injection of 1 g/kg glucose. […] Blood was obtained from the tail vein before (0 min) and after (15, 30, 60, 90 and 120 min) the injection of glucose or insulin. Glucose levels were measured using an automatic glucometer (Roche Diagnostics, Rotkreuz, Switzerland).
B6 mice were fed with HFD for 16 weeks.

[6] = tested on: human Kupffer cells from NAFLD patients; settings: 500 nM, ex vivo, 24 hours
Experimental: CD14^+ KCs were sorted from single cell suspension of NAFLD human liver biopsies (n=2) and treated with DMSO or DPI (500 nM) for 24 hrs, followed by RNAseq to quantify gene expression.
Human liver biopsies were obtained from livers procured from deceased donors deemed unacceptable for liver transplantation. Samples were collected with appropriate institutional ethics approval from The First Affiliated Hospital of Jilin University. All experiments were performed in accordance with the relevant guidelines and regulations. In addition, written informed consent was obtained from each subject. During organ retrieval, donor liver grafts were perfused in situ with cold (HTK) solution (Methapharm) to thoroughly flush out circulating cells, leaving only tissue resident cells that are then used to prepare a single-cell suspension to isolate immune cells. The unused liver caudate lobe post liver transplantation was collected and flushed with HBS+EGTA at 4° C. to remove any non-liver resident cells. Single-cell isolation from the resected caudate lobe was performed with a modified two-step collagenase procedure (MacFarland et al. 2017 ACnano). Single cell suspension was stained with anti-CD45 to sort all immune cells for scRNAseq or anti-CD14 to sort KCs for in vitro treatment by flow cytometry (BD Aria).
RNAs were extracted with RNeasy MinElute Kit (Qiagen), converted into cDNA and sequenced using Next-Generation Sequencing (Illumina). RNA-seq data were aligned to the human genome (version hg19) and raw counts of each genes of each sample were calculated with bowtie2 2.2.3 (Langmead et al. 2009) and RSEM 1.2.15 (Li et al. 2011). Differential expression analysis was performed using the program edgeR at P<0.05 with a two-fold change (Robinson et al. 2010). The gene expression level across different samples was normalized and quantified using the function of cpm. DEGs were annotated using online functional enrichment analysis tool DAVID (Huang et al. 2007). […]

[7] = BMMs in B16F10 conditioned medium, 2.5 μM, 24 hrs, qPCR
[8] = BMMs in B16F10 conditioned medium, flow cytometry
[9] = IL-4/IL-13 and lactic acid-polarized BMMs, qPCR

Experimental for c-Myc: Transfected cells were not treated or treated with DPI (50 and 500 nM) for 6 hrs and luciferase activities were measured. Data are presented as the mean±sd (n=5). P values were calculated by student t-test. * P<0.05, ** P<0.01, *** P<0.001, **** P<0.0001.
The c-Myc activity was assessed using the Myc Reporter kit (BPS Biosciences) and the Dual-Luciferase Reporter System (Promega) according to the manufacturers' instructions. Briefly, 100 μL (1.5×10^5 cells/mL) control and Kupffer cells were seeded into 96-well plates. After overnight incubation, when cells reached ˜50% confluency, 1 μL of Reporter A (60 ng/μL) in the Myc Reporter kit was transfected into cells using Turbofectin 8.0. After 48 hours, cells were lysed in 25 μL Passive Lysis Buffer (provided in the Dual-Luciferase Reporter kit). 20 μL of cell lysate was transferred to 96-well plates and placed in a 96-well microplate luminometer (GloMax-Multi, Promega). 100 μL Luciferase Assay Reagent II and 100 μL Stop & Glo Reagent (both provided in the Dual-Luciferase Reporter kit) were sequentially injected, and firefly and Renilla luciferase activities were automatically measured. c-Myc activities were determined by the ratios of firefly to Renilla luciferase activities.

| Compound | expression of M1-associated genes Tnf, Il1b, Cxcl2 and Nos2 [1, 7] | expression of TAM/M2-associated genes Arg1, Fizz1, Vegfa, Ym1 and Tgfb [1, 7] | ARG1 [1, 8] | MHCII, CD80 and iNOS [1, 8] | expression of Arg1, Fizz1, Ym1 and Tgfb [1, 9] | expression of Tnf, Il1b, Cxcl2 and Ccl5 [1, 9] | ADCP [2] | ADCP [3] | transcription of genes in the glycolysis pathway ([4]; 50 nM, 24 hours, RNAseq) | HK, GAPDH, LDHA and enolase at the protein level ([4]; human primary macrophages, dose- and time-dependent) | HK, GAPDH, LDHA and enolase at the protein level (ImKCs) | c-Myc luciferase activity (c-Myc; Pkm−/− ImKCs) | c-Myc luciferase activity (c-Myc; parental ImKCs, 50 and 500 nM, 6 hrs) | glucose tolerance [5] | lipid droplet, steatosis and collagen deposition in the liver [5] | weight gain ([5]; 2 mg/kg every 5 days from week 9) | weight of iWAT ([5]; vs vehicle) | expression of DAM markers APOE, CLEC10A, TREM2 and C1QA [6] | expression of genes associated with chemokine-mediated signaling, chemotaxis and inflammatory response [6] | expression of glycolytic genes [6] |
| --- | --- | --- | --- | --- | --- | --- | --- | --- | --- | --- | --- | --- | --- | --- | --- | --- | --- | --- | --- | --- |
| C=C(NC(=O)C(=C)NC(=O)c1csc(C2=N[C@@H]3c4csc(n4)[C@H]4NC(=O)c5csc(n5)[C@H]([C@](C)(O)[C@@H](C)O)NC(=O)[C@H]5CSC(=N5)/C(=C/C)NC(=O)[C@H]([C@@H](C)O)NC(=O)c5csc(n5)[C@]3(CC2)NC(=O)[C@H](C)NC(=O)C(=C)NC(=O)[C@H](C)NC(=O)[C@H]([C@@H](C)CC)N[C@@H]2C=Cc3c([C@H](C)O)cc(nc3[C@H]2O)C(=O)O[C@@H]4C)n1)C(N)=O [Thiostrepton] | up-regulated | inhibited | down-regulation | up-regulation | inhibited | elevated | elevated | elevated |  |  |  |  |  |  |  |  |  |  |  |  |
| c1ccc2c(c1)[I+]c1ccccc1-2 [Diphenyleneiodonium chloride] |  |  |  |  |  |  |  |  | stimulates transcription | upregulation | upregulation | not | induced | increased | reduced | significantly reduced | significantly lower | downregulated | suppressed | upregulated |
